Measurements as given in the METLIN SMRT retention time set (Domingo-Almenara et al. 2019).

Assay: gradient 5% acetonitrile 3 min, to 50% in 2 min, to 85% in 15 min, held 3 min, 100 µL/min
Settings: column: Zorbax Extend-C18 2.1 x 50 mm; eluents: water / acetonitrile, 0.1% formic acid
How it was run: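 Retention times of pure standards were taken from adduct peaks that were selected by computer and manually inspected. Over 3 months, mixtures of ~100 molecules were run by HPLC–quadrupole time-of-flight mass spectrometry in positive and negative ionization mode. The Zorbax Extend-C18 column (2.1 × 50 mm, 1.8 μm) ran at 100 μL/min in water and acetonitrile, each containing 0.1% formic acid, with 40 μL dead volume and 900 μL dwell volume.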

Row | Structure (SMILES) | RP-LC retention time [s]
1 | Cc1cccc(-c2nc(-c3cccc(-c4ccnn4C)c3)no2)c1 | 1220
2 | Cc1nc(-c2csc(S(=O)(=O)N3CCCC(C(=O)Nc4cccc(C)c4C)C3)c2)no1 (configuration not stated) | 951
3 | CCOC(=O)C1CCN(C(=O)CN2C(=O)COc3ccc(C(=O)N(CC)CC)cc32)CC1 | 700
4 | CSc1ccc(Cl)c(-c2nc(-c3cccc(-c4ccnn4C)c3)no2)c1 | 1300
5 | CCOc1ccc(S(=O)(=O)[C@H]2CS(=O)(=O)C[C@@H]2N2CCN(c3ccccn3)CC2)cc1 | 640
6 | COCc1cn(C2CN(C(=O)Cc3c[nH]c4ccccc34)C2)nn1 | 634
7 | CC(C)Oc1ccc(-c2noc(CN3N=NC4C(=O)N(c5ccc(C(C)C)cc5)C(=O)C43)n2)cc1 (configuration not stated) | 1180
8 | CCN(C(=O)Cc1c(C(=O)O)c(C)cn1CC)c1cccc(Cl)c1 | 839
9 | CC1CCN(c2ncc(C(=O)O)c(-c3ccncc3)n2)CC1 | 683
10 | O=C(Cn1nc2c3cc(-c4ccccc4)nn3ccn2c1=O)Nc1ccc(Br)cc1 | 947
11 | CCC(c1cccs1)N1C(=O)[C@H]2CN(S(=O)(=O)c3ccccc3Cl)C[C@H]2C1=O (some centres not stated) | 1000
12 | Cc1oc(C2CCN(S(=O)(=O)c3cc(F)ccc3F)CC2)nc1C(=O)N1CCCC1 | 926
13 | CC(C)OC(=O)CCC/C=C\C[C@@H]1[C@@H](/C=C/[C@@H](O)COc2cccc(C(F)(F)F)c2)[C@H](O)C[C@@H]1O | 955
14 | CCOC(=O)CCNC(=O)N1[C@H]2CC[C@@H]1c1cnc(-c3ccc(F)cc3)nc1C2 | 797
15 | Cn1nccc1-c1cccc(-c2noc(-c3cc(F)cc(F)c3)n2)c1 | 1220
16 | Cc1c(C(=O)NCC2CC2)cnn1-c1ccc(-c2nc(C3CC3)no2)cn1 | 810
17 | COCCNC(=O)[C@@H]1[C@H](c2cc(OC)c(OC)c(OC)c2)c2cc3c(cc2[C@H](O)[C@H]1CO)OCO3 | 623
18 | COc1cc(C2=NN(C(C)=O)C(c3ccncc3)O2)cc(OC)c1OC(C)=O (configuration not stated) | 714
19 | Cc1cc(C(F)(F)F)nn1CC(=O)N1CCC(n2c(C)cnc2C2CCC2)C1 (configuration not stated) | 656
20 | O=C(NCCn1cc(SCC(=O)N2CCOCC2)c2ccccc21)c1ccc(F)cc1 | 733
21 | Cc1nc(-c2csc(S(=O)(=O)N3CCCC(C(=O)NC4CCCCCCC4)C3)c2)no1 (configuration not stated) | 1060
22 | CS(=O)(=O)N1CCN(Cc2nnnn2-c2ccc(Cl)cc2)CC1 | 719

Row | Structure (SMILES) | RP-LC retention time [s]
23 | Cc1ccc2c(c1)N(S(C)(=O)=O)CCC(C(=O)NC1CC3CCC1C3)O2 (configuration not stated) | 941
24 | Cc1csc(-c2cc(S(=O)(=O)NCCCN3CCc4ccccc4C3)c(C)s2)n1 | 708
25 | OC(c1ccccc1)(c1ccccc1)C1CN2CCC1CC2 (configuration not stated) | 733
26 | CS(=O)(=O)N(C1CCOCC1)C1CN(C(=O)Nc2ccccc2)C1 | 666
27 | CN1c2ccc(Cl)cc2C(=O)NC12CCN(C(=O)Nc1ccc(F)cc1)CC2 | 788
28 | O=C(Cn1nc2nc(N3CCOCC3)ccn2c1=O)Nc1ccc(F)c(F)c1 | 666
29 | COc1ccc(C)cc1NC(=O)C1CCN(S(=O)(=O)c2cn(C)cn2)CC1 | 666
30 | Cc1cc(-c2nnc(-c3ccc(F)cc3)o2)c(C)n1CC(=O)NCc1ccc2c(c1)OCO2 | 916
31 | CCc1ccc2ncc(C#N)c(N3CCC(C(=O)NCc4ccc(F)cc4)CC3)c2c1 | 710
32 | CC(C)=CCOc1cc(O)c2c(=O)cc(-c3ccccc3)oc2c1 | 666
33 | CC(C)NC(=O)c1ccc(OCC2CCN(C(=O)c3ccccc3Cl)CC2)cc1 | 820
34 | CC1(C)COc2ccc(NC(=O)c3cccc(Br)c3)cc2NC1=O | 892
35 | COc1ccc(-c2nnc(N3CCC(C(=O)N4CCN(c5ccccc5)CC4)CC3)o2)cc1 | 859
36 | Cc1nc(-c2cc(S(=O)(=O)N3CCC(C(=O)NCCN4CCCCCC4)CC3)c(C)s2)no1 | 666
37 | CC(C)CCn1nc2c(S(=O)(=O)N3CCCCC3)cccn2c1=O | 906
38 | Cn1cc(C(=O)N2CCC(N(Cc3ccccc3)C3CCOCC3)CC2)cn1 | 573
39 | COc1cc([N+](=O)[O-])ccc1NC(=O)c1ccccc1S(C)(=O)=O | 749
40 | Nc1ccc(Nc2ccccc2)c(S(=O)(=O)O)c1 | 639
41 | O=C(c1ccco1)N1CCN=C1SCc1cccc(C(F)(F)F)c1 | 849
42 | Cc1nc2cc(N3CCCC(C(=O)NCCN4CCOCC4)C3)cnc2nc1C (configuration not stated) | 557
43 | O=C(Cn1nc2nc(N3CCCC3)ccn2c1=O)Nc1ccc(Cl)cc1 | 714
44 | O=C(C1=CN(c2ccccc2)c2cc(Cl)ccc2S1(=O)=O)N1CCCCC1 | 930

Row | Structure (SMILES) | RP-LC retention time [s]
45 | Cc1cc(N2CCN(C)CC2)nc2ccc(NC(=S)NCc3ccc(F)cc3)cc12 | 599
46 | CC(NC(=O)Cn1c(C(F)(F)F)nc2ccccc21)c1ccc2c(c1)OCCCO2 (configuration not stated) | 842
47 | COc1ccccc1N1CCN(C(=O)c2cn(-c3ccc(NC(C)=O)cn3)cn2)CC1 | 646
48 | Cc1cc(F)cc2c(=O)c3c([nH]c12)CCN(CC(=O)Nc1cc(F)cc(F)c1)C3 | 635
49 | Cc1ccc(-c2ccc(N3CCCC(C(=O)NCCCN4CCOCC4)C3)nn2)cc1 (configuration not stated) | 571
50 | O=c1c(=O)n(-c2cccc(Cl)c2)ccn1Cc1nc(-c2ccccc2)no1 | 875
51 | CCc1ccc(C2=C(C)C(N3CCCN(C(=O)c4ccco4)CC3)=NS2(=O)=O)cc1 | 838
52 | CCCCNC(=O)C1(c2ccc(NC(C)=O)cc2)CCC1 | 704
53 | O=C(NCC1CCN(C(=O)c2cc3ccccc3o2)CC1)c1cc(-c2ccccc2)on1 | 903
54 | CN1CCn2cc(S(=O)(=O)N3CCN(c4ccccc4)CC3)cc2C1=O | 764
55 | Cc1ccc(C(=O)NCc2nc(-c3ccc4c(c3)ncn4C3CCCC3)no2)cc1 | 719
56 | O=c1c2ccccc2c(-c2nc(-c3cccnc3)no2)cn1-c1cccc(Cl)c1 | 1130
57 | Cc1ccc(C)c(S(=O)(=O)N2C[C@@H](F)C[C@H]2C(=O)N2CCCCC2)c1 | 856
58 | CN(C1CCC1)C1CCc2nn(Cc3ccccc3)c(=O)n2CC1 (configuration not stated) | 590
59 | CC(C)(C)c1ccc(S(=O)(=O)N2CCCCC2C(=O)N2CCN(c3ccc(F)cc3)CC2)cc1 (configuration not stated) | 1230
60 | COc1ccc(OC)c(S(=O)(=O)Cc2nc(-c3ccccc3C)no2)c1 | 990
61 | CCC(=O)N(C)CCc1noc(COc2cccc(C(F)(F)F)c2)n1 | 842
62 | Cc1ccc2[nH]cc(CCNC(=O)C3CCN(S(=O)(=O)c4ccc5c(ccn5C)c4)CC3)c2c1 | 933
63 | CCc1nc(-c2csc(S(=O)(=O)N3CCC(C(=O)Nc4ccccc4CC)CC3)c2)no1 | 1010
64 | Cn1c(=O)c(N2CCN(C(=O)c3cccs3)CC2)nc2cccnc21 | 793
65 | COc1ccc(-n2c(=O)n(C)c(=O)c3cc(C(=O)NCc4ccccc4)cnc32)cc1 | 849
66 | Cc1ccc(N2C(=O)CC(N3CCC(C(N)=O)CC3)C2=O)c(Cl)c1 (configuration not stated) | 614

Row | Structure (SMILES) | RP-LC retention time [s]
67 | CCCc1ccc(OCC(O)CN2CCN(C)CC2)cc1 (configuration not stated) | 551
68 | Cc1cccc(N2C(=O)CN(CCc3ccccc3F)[C@H]3CS(=O)(=O)C[C@H]32)c1 | 840
69 | O=C(c1noc2ccc(S(=O)(=O)N3CCN(c4ccccn4)CC3)cc12)N1CCCCC1 | 703
70 | Cc1noc([C@@H]2CN(C(=O)c3ccsc3)C[C@H]2C(N)=O)n1 | 601
71 | CCOC(=O)Cn1c(CNC(=O)c2ccco2)nc2ccccc21 | 618
72 | CCCC(CCC)C(=O)NCCc1c[nH]c2ccc(C)cc12 | 996
73 | COc1cc(OC)c(/C=C2/C(=O)Nc3ccccc32)c(OC)c1 | 986
74 | CCOc1ccc(S(=O)(=O)N2CCCN(c3ccc(=O)n(-c4ccc(F)cc4)n3)CC2)cc1 | 885
75 | CN(C)C[C@@H]1CN(c2ncccn2)C[C@H]1NC(=O)C1(C)CCOCC1 | 532
76 | N#CC(c1ccc(Cl)cc1)c1c(Cl)cc(N2NCC(=O)NC2=O)cc1Cl (configuration not stated) | 1020
77 | Cc1cnc(C2CC2)n1CCNS(=O)(=O)Cc1ccccc1 | 634
78 | CCOC(=O)c1ccc(NS(=O)(=O)c2cc(-c3c(CC)noc3NC(C)=O)ccc2OC)cc1 | 805
79 | COc1ccc(C(=O)N2C[C@@H]3C[C@H]2C[C@@H]3NC(=O)c2cccnc2)cc1F | 618
80 | COc1ccc(OC)c(NC(=O)N2C[C@@H](F)C[C@H]2C(=O)N2CCc3ccccc3C2)c1 | 826
81 | COC(=O)C1=CN(c2cc(OC)ccc2OC)c2ccc(F)cc2S1(=O)=O | 874
82 | CCOC(=O)C1CCc2sc(NC(=O)Cc3sc(C)nc3C)nc21 (configuration not stated) | 639
83 | CCOc1ncccc1C(=O)Nc1cccc(-c2csc3nc(C)cc(=O)n23)c1 | 774
84 | O=C(NCc1nnnn1C1CCCCC1)c1ccccc1C(F)(F)F | 782
85 | O=C(CCCc1nc2cccnc2n1Cc1ccc(F)cc1)N1CCN(c2ccccn2)CC1 | 606
86 | CCc1nnc(-c2ccc(S(=O)(=O)N3CCCC(C)C3)o2)o1 (configuration not stated) | 906
87 | CNC(=O)CN(C)C(=O)c1cc2c(s1)N(C)CCCC2 | 686
